The record followed here is patent US20150051206A1, “COMPOUNDS AND COMPOSITIONS AS C-KIT KINASE INHIBITORS” (IRM LLC, priority 2011, published 2015).

The target in one assay is T1, c-kit (Homo sapiens, UniProt P10721).
T1 construct: human Mo7e cells which endogenously express c-kit; endogenous in cells; host or cells: human Mo7e cells (promegakaryocytic leukemia line), stimulated with human recombinant SCF
T1 sequence (P10721 26-976): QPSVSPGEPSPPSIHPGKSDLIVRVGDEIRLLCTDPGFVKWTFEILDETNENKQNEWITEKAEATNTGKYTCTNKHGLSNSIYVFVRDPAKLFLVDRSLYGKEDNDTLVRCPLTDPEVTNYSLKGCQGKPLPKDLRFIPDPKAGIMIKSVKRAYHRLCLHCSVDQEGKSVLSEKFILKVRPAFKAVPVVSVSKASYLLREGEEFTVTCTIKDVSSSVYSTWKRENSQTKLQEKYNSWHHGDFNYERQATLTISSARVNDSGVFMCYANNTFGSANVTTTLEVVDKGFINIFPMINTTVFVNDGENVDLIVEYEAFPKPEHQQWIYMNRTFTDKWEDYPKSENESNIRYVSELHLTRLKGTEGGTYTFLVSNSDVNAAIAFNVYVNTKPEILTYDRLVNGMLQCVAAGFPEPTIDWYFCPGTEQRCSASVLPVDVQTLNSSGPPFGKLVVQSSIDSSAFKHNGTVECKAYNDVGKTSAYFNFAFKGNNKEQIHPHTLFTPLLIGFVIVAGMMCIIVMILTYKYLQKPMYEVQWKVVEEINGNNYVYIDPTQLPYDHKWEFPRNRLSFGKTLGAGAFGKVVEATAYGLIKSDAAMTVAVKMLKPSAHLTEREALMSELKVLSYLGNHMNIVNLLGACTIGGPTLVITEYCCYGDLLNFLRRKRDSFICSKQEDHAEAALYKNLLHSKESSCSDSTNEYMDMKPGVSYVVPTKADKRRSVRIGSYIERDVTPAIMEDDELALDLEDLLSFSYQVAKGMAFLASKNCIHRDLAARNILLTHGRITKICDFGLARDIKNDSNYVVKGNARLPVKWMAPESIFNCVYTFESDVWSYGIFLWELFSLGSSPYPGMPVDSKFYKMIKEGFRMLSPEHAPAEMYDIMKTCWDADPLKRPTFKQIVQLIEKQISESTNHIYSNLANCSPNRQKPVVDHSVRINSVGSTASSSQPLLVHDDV
The assay can be described thus: Mo7e cell proliferation assay (SCF dependent proliferation). The assay is classed as cell-based. As to conditions: Table 2; Mo7e cells stimulated with human recombinant SCF, 48 hours; 1% FBS. The method, then: Compounds of Formula (I) and Formula (II) provided herein were assayed to measure their capacity to inhibit c-kit and PDGFR kinases using the appropriate assay described below: c-Kit inhibition was evaluated using the Mo7e cell proliferation assay, and PDGFR inhibition was evaluated using the Rat A10 cell proliferation assay and the Human TG/HA-VSMC cell proliferation assay.
The compounds of Table 1 and Table 2 were tested for inhibition of SCF dependent proliferation using human Mo7e cells which endogenously express c-kit in a 384 well format. […] After 48 hours of incubation at 37° C., cell viability was measured by adding 25 uL of CellTiter Glo (Promega) to the cells and the luminescence was measured by a CLIPR CCD camera (Molecular Devices).
The IC50 value is given as that concentration of the test compound in question that provoke a response halfway between the baseline and maximum responses.
Take `COc1cccc(F)c1-c1noc(-c2ccc(C)c(NC(=O)c3cnc4ccccn34)c2)n1` [F40, N-{5-[3-(2-fluoro-6-methoxyphenyl)-1,2,4-oxadiazol-5-yl]-2-methylphenyl}imidazo[1,2-a]pyridine-3-carboxamide]: the half-maximal inhibitory concentration (IC50) (commonly the midpoint of a concentration-inhibition curve) is 596 nM.
Regarding `Cc1ccc(-c2noc(-c3ccccn3)n2)cc1NC(=O)c1cnc2ccccn12` [F42, N-{2-methyl-5-[5-(pyridin-2-yl)-1,2,4-oxadiazol-3-yl]phenyl}imidazo[1,2-a]pyridine-3-carboxamide], the IC50 came to 105 nM.
The same measure, in the same setting: next, `Cc1ccc(-c2nc(-c3ccccc3)no2)cc1NC(=O)c1cnc2ccccn12` [F46, N-[2-methyl-5-(3-phenyl-1,2,4-oxadiazol-5-yl)phenyl]imidazo[1,2-a]pyridine-3-carboxamide]: 101 nM.
Take `Cc1ccc(-c2noc(-c3nccn3C)n2)cc1NC(=O)c1cnc2ccccn12` [F49, N-{2-methyl-5-[5-(1-methyl-1H-imidazol-2-yl)-1,2,4-oxadiazol-3-yl]phenyl}imidazo[1,2-a]pyridine-3-carboxamide]: the IC50 came to 232 nM.
On the same count and under the same terms, the result for `Cc1ccc(-c2noc(-c3ccccc3N3CCN(C)CC3)n2)cc1NC(=O)c1cnc2ccccn12` [F52, N-(2-methyl-5-{5-[2-(4-methylpiperazin-1-yl)phenyl]-1,2,4-oxadiazol-3-yl}phenyl)imidazo[1,2-a]pyridine-3-carboxamide] reads 433 nM.
As for `Cc1ccc(-c2noc(-c3cccc(N4CCN(C)CC4)c3)n2)cc1NC(=O)c1cnc2ccccn12` [F53, N-(2-methyl-5-{5-[3-(4-methylpiperazin-1-yl)phenyl]-1,2,4-oxadiazol-3-yl}phenyl)imidazo[1,2-a]pyridine-3-carboxamide], the IC50 came to 101 nM.
As to `Cc1ccc(-c2noc(-c3ccc(N4CCN(C)CC4)cc3)n2)cc1NC(=O)c1cnc2ccccn12` [F54, N-(2-methyl-5-{5-[4-(4-methylpiperazin-1-yl)phenyl]-1,2,4-oxadiazol-3-yl}phenyl)imidazo[1,2-a]pyridine-3-carboxamide], the IC50 was 370 nM.
On the same count and under the same terms, next, `Cc1ccc(-c2noc(CCc3nccn3C)n2)cc1NC(=O)c1cnc2ccccn12` [F56, N-(2-methyl-5-{5-[2-(1-methyl-1H-imidazol-2-yl)ethyl]-1,2,4-oxadiazol-3-yl}phenyl)imidazo[1,2-a]pyridine-3-carboxamide]: 340 nM.
Still for that read-out and setting: the result for `Cc1ccc(-c2noc(CCn3ccnc3)n2)cc1NC(=O)c1cnc2ccccn12` [F57, N-(5-{5-[2-(1H-imidazol-1-yl)ethyl]-1,2,4-oxadiazol-3-yl}-2-methylphenyl)imidazo[1,2-a]pyridine-3-carboxamide] reads 337 nM.
On to `Cc1ccc(-c2noc(CCn3cncn3)n2)cc1NC(=O)c1cnc2ccccn12` [F58, N-(2-methyl-5-{5-[2-(1H-1,2,4-triazol-1-yl)ethyl]-1,2,4-oxadiazol-3-yl}phenyl)imidazo[1,2-a]pyridine-3-carboxamide], for which the 50% inhibitory concentration (IC50) was 135 nM.
As to `Cc1ccc(-c2noc(Cn3cnnn3)n2)cc1NC(=O)c1cnc2ccccn12` [F59, N-{2-methyl-5-[5-(1H-1,2,3,4-tetrazol-1-ylmethyl)-1,2,4-oxadiazol-3-yl]phenyl}imidazo[1,2-a]pyridine-3-carboxamide], the IC50 stood at 646 nM.
The same measure, in the same setting: next, `Cc1ccc(-c2noc(Cn3ccnc3C)n2)cc1NC(=O)c1cnc2ccccn12` [F60, N-(2-methyl-5-{5-[(2-methyl-1H-imidazol-1-yl)methyl]-1,2,4-oxadiazol-3-yl}phenyl)imidazo[1,2-a]pyridine-3-carboxamide]: 445 nM; `Cc1ccc(-c2noc(Cn3ccnc3)n2)cc1NC(=O)c1cnc2ccccn12` [F61, N-{5-[5-(1H-imidazol-1-ylmethyl)-1,2,4-oxadiazol-3-yl]-2-methylphenyl}imidazo[1,2-a]pyridine-3-carboxamide]: 280 nM; `Cc1ccc(-c2noc(Cn3cncn3)n2)cc1NC(=O)c1cnc2ccccn12` [F63, N-{2-methyl-5-[5-(1H-1,2,4-triazol-1-ylmethyl)-1,2,4-oxadiazol-3-yl]phenyl}imidazo[1,2-a]pyridine-3-carboxamide]: 269 nM.
The same measure, in the same setting: the result for `Cc1ccc(Nc2noc(-c3cccnn3)n2)cc1NC(=O)c1cnc2ccccn12` [F64, N-(2-methyl-5-{[5-(pyridazin-3-yl)-1,2,4-oxadiazol-3-yl]amino}phenyl)imidazo[1,2-a]pyridine-3-carboxamide] reads 115 nM.
As for `Cc1ccc(-c2noc(-c3ccc(N4CCOCC4)cc3)n2)cc1NC(=O)c1cnc2ccccn12` [F65, N-(2-methyl-5-{5-[4-(morpholin-4-yl)phenyl]-1,2,4-oxadiazol-3-yl}phenyl)imidazo[1,2-a]pyridine-3-carboxamide], the IC50 came out at 1080 nM.
As for `Cc1ccc(-c2noc(CCc3nn[nH]n3)n2)cc1NC(=O)c1cnc2ccccn12` [F67], the IC50 was greater than 10000 nM.
On the same count and under the same terms, next, `Cc1ccc(-c2nc(-c3ccc(F)cc3)no2)cc1NC(=O)c1cnc2ccccn12` [F68]: greater than 10000 nM.
On the same count and under the same terms, next, `Cc1ccc(-c2noc(-c3ccc(C)c(NC(=O)c4cnc5ccccn45)c3)n2)cc1F` [F69]: greater than 10000 nM; `Cc1ccc(-c2nc(-c3ccncc3)no2)cc1NC(=O)c1cnc2ccccn12` [F70]: greater than 10000 nM; `Cc1ccc(-c2nc(-c3cccnc3)no2)cc1NC(=O)c1cnc2ccccn12` [F71]: greater than 10000 nM.
Still for that read-out and setting: the result for `Cc1ccc(-c2nc(-c3ccc(OC(F)(F)F)cc3)no2)cc1NC(=O)c1cnc2ccccn12` [F72] reads greater than 10000 nM.

Staying with this assay, now noted: Table 2; Mo7e cells stimulated with human recombinant SCF, 48 hours; 20% FBS instead of 1% FBS (values marked *).
For the compound `COc1ccnc(-c2noc(-c3ccc(C)c(NC(=O)c4cnc5ccccn45)c3)n2)c1` [F33, N-{5-[3-(4-methoxypyridin-2-yl)-1,2,4-oxadiazol-5-yl]-2-methylphenyl}imidazo[1,2-a]pyridine-3-carboxamide], the IC50 is 265 nM.
On the same count and under the same terms, next, `Cc1ccc(-c2nc(-c3cnccc3C)no2)cc1NC(=O)c1cnc2ccccn12` [F34, N-{2-methyl-5-[3-(4-methylpyridin-3-yl)-1,2,4-oxadiazol-5-yl]phenyl}imidazo[1,2-a]pyridine-3-carboxamide]: 139 nM.
The same measure, in the same setting: the result for `Cc1ccc(-c2nc(-c3cccc(F)c3)no2)cc1NC(=O)c1cnc2ccccn12` [F36, N-{5-[3-(3-fluorophenyl)-1,2,4-oxadiazol-5-yl]-2-methylphenyl}imidazo[1,2-a]pyridine-3-carboxamide] reads 173 nM; that for `Cc1ccc(-c2nc(-c3cccnc3OCC(F)(F)F)no2)cc1NC(=O)c1cnc2ccccn12` [F38, N-(2-methyl-5-{3-[2-(2,2,2-trifluoroethoxy)pyridin-3-yl]-1,2,4-oxadiazol-5-yl}phenyl)imidazo[1,2-a]pyridine-3-carboxamide], 192 nM; that for `Cc1ccc(F)c(-c2noc(-c3ccc(C)c(NC(=O)c4cnc5ccccn45)c3)n2)c1` [F39, N-{5-[3-(2-fluoro-5-methylphenyl)-1,2,4-oxadiazol-5-yl]-2-methylphenyl}imidazo[1,2-a]pyridine-3-carboxamide], 104 nM.
As for `Cc1ccc(-c2nc(Cc3ccccc3OC(F)(F)F)no2)cc1NC(=O)c1cnc2ccccn12` [F43, N-[2-methyl-5-(3-{[2-(trifluoromethoxy)phenyl]methyl}-1,2,4-oxadiazol-5-yl)phenyl]imidazo[1,2-a]pyridine-3-carboxamide], the IC50 was found to be 289 nM.
For the compound `Cc1ccc(-c2nc(-c3cccnc3Cl)no2)cc1NC(=O)c1cnc2ccccn12` [F44, N-{5-[3-(2-chloropyridin-3-yl)-1,2,4-oxadiazol-5-yl]-2-methylphenyl}imidazo[1,2-a]pyridine-3-carboxamide], the half-maximal inhibitory concentration (IC50) was 236 nM.
In the case of `COc1ccccc1Cc1noc(-c2ccc(C)c(NC(=O)c3cnc4ccccn34)c2)n1` [F45, N-(5-{3-[(2-methoxyphenyl)methyl]-1,2,4-oxadiazol-5-yl}-2-methylphenyl)imidazo[1,2-a]pyridine-3-carboxamide], the IC50 turned out to be 116 nM.
Take `Cc1ccc(-c2noc(-c3ccccc3)n2)cc1NC(=O)c1cnc2ccccn12` [F47, N-[2-methyl-5-(5-phenyl-1,2,4-oxadiazol-3-yl)phenyl]imidazo[1,2-a]pyridine-3-carboxamide]: the IC50 came to 196 nM.
As to `Cc1ccc(-c2noc(-c3ncccn3)n2)cc1NC(=O)c1cnc2ccccn12` [F48, N-{2-methyl-5-[5-(pyrimidin-2-yl)-1,2,4-oxadiazol-3-yl]phenyl}imidazo[1,2-a]pyridine-3-carboxamide], the IC50 is 815 nM.
For `Cc1ccc(-c2nc(-c3ccc(C)c(NC(=O)c4cnc5ccccn45)c3)no2)cn1` [F50, N-{2-methyl-5-[5-(6-methylpyridin-3-yl)-1,2,4-oxadiazol-3-yl]phenyl}imidazo[1,2-a]pyridine-3-carboxamide], the IC50 stood at 850 nM.
Regarding `Cc1ccc(-c2noc(-c3ccccc3N3CCOCC3)n2)cc1NC(=O)c1cnc2ccccn12` [F51, N-(2-methyl-5-{5-[2-(morpholin-4-yl)phenyl]-1,2,4-oxadiazol-3-yl}phenyl)imidazo[1,2-a]pyridine-3-carboxamide], the IC50 came out at 179 nM.
Still for that read-out and setting: next, `Cc1ccc(-c2noc(-c3cccc(N4CCOCC4)c3)n2)cc1NC(=O)c1cnc2ccccn12` [F55, N-(2-methyl-5-{5-[3-(morpholin-4-yl)phenyl]-1,2,4-oxadiazol-3-yl}phenyl)imidazo[1,2-a]pyridine-3-carboxamide]: 330 nM.
